IC50 data for 26 compounds are collected here from US10660877B2 (BRISTOL-MYERS SQUIBB COMPANY, priority 2016, dated 2020).

One test has as its target human TLR7 (Homo sapiens (Human), UniProt Q9NYK1). Description: TLR7 inhibition reporter assay (HEK-Blue cells, SEAP reporter, gardiquimod stimulation). Particulars: HEK-Blue cells, gardiquimod 7.5 μM. In kind it is cell-based.
The target in the next test is human TLR8 (Homo sapiens (Human), UniProt Q9NR97). Description: TLR8 inhibition reporter assay (HEK-Blue cells, SEAP reporter, R848 stimulation).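 Further: compounds tested from 0.05 nM to 50 µM, 22 h at 37 °C, SEAP measured with HEK-Blue Detection, inhibition relative to agonist plus DMSO versus a known inhibitor.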 The note with it: read-out: TLR8 IC50, HEK-Blue cells, R848 15.9 μM.
A further test addresses human TLR9 (Homo sapiens (Human), UniProt Q9NR96). Nature of the test: TLR9 inhibition reporter assay (HEK-Blue cells, SEAP reporter, ODN2006 stimulation).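 Further: compounds tested over 0.05 nM to 50 µM, 22 h incubation, inhibition taken as SEAP signal drop from agonist plus DMSO wells toward a known inhibitor control.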 Particulars: read-out: TLR9 IC50, HEK-Blue cells, ODN2006 5 nM.

Molecules are shown by their SMILES.

Sequence of human TLR8 (Q9NR97 27-1041): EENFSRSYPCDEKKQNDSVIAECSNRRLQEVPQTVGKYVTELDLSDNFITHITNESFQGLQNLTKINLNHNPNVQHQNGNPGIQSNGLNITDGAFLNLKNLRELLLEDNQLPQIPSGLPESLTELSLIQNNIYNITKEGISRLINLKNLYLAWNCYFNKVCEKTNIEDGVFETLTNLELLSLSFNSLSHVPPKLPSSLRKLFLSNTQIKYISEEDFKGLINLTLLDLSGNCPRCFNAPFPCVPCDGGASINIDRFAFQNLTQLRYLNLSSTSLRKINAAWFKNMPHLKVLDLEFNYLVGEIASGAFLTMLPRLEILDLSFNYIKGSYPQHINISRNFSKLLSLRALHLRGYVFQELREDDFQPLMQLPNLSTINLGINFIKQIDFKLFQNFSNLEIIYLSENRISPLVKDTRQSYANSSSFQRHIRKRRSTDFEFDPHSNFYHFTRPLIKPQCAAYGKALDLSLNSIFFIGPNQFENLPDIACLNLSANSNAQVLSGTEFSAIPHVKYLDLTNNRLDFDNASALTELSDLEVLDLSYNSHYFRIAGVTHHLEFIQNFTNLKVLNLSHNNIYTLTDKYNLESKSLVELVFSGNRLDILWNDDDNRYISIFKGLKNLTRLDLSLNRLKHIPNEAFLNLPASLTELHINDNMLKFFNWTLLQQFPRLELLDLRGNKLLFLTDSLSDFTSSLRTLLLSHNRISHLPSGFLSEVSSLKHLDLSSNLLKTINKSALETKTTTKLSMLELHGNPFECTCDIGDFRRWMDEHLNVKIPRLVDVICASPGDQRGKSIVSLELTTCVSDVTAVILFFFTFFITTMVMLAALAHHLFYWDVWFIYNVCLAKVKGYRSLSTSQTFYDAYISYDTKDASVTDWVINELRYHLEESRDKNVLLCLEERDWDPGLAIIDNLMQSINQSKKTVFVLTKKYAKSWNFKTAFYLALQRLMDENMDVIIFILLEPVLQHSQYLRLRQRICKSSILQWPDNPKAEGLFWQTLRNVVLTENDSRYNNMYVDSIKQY
Sequence of human TLR9 (Q9NR96 26-1032): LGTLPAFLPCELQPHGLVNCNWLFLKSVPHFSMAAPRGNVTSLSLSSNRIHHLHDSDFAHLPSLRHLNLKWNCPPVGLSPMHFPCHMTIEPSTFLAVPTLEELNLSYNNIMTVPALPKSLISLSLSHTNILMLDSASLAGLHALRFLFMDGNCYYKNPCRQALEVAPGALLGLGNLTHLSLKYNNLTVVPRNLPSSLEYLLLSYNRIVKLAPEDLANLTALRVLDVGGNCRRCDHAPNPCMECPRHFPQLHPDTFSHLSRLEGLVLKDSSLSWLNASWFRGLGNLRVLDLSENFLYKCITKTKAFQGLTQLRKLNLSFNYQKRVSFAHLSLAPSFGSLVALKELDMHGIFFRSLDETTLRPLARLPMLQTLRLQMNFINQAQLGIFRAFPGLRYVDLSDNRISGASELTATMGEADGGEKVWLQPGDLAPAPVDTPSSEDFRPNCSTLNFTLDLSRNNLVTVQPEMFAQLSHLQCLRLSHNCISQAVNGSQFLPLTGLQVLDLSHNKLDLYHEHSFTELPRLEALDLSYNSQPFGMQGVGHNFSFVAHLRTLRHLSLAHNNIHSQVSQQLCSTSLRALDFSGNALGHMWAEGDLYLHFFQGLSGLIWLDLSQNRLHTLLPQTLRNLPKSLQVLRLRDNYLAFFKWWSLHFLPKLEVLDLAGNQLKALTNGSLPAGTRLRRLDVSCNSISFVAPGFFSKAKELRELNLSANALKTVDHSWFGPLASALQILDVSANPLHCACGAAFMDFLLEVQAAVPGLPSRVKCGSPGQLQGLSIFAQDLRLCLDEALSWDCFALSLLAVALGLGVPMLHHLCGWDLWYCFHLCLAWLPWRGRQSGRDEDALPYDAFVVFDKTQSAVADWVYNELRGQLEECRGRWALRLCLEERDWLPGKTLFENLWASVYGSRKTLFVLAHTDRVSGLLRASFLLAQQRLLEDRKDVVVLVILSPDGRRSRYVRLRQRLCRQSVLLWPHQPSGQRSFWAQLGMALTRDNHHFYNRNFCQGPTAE
Sequence of human TLR7 (Q9NYK1 27-1049): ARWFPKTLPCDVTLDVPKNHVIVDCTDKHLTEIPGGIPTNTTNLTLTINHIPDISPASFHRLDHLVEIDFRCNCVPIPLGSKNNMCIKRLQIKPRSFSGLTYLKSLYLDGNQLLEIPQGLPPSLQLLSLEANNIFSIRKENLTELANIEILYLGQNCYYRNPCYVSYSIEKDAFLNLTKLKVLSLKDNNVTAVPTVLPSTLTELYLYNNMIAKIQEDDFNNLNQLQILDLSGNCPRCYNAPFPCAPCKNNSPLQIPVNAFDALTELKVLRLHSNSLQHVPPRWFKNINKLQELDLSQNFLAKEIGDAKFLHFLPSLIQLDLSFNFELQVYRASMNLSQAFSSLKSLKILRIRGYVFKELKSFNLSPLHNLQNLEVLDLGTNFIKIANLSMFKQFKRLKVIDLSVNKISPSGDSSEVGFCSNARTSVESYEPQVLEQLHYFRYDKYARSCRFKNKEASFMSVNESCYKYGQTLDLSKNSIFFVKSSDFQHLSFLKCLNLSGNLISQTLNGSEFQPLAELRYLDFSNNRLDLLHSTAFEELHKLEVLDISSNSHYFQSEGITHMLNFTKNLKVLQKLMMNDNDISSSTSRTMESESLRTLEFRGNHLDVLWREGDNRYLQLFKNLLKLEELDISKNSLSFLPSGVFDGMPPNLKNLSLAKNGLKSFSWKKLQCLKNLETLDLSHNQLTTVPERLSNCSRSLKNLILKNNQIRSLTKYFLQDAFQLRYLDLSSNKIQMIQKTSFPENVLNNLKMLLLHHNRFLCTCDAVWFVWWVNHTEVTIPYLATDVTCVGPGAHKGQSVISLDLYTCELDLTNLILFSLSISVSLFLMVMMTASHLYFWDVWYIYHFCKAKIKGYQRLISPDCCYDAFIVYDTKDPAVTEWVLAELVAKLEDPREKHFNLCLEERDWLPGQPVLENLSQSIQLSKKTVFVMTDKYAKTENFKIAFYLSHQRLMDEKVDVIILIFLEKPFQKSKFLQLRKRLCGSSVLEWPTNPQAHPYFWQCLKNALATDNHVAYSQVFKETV
Description for human TLR9: TLR7/8/9 Inhibition Reporter Assays
Briefly, cells are seeded into Greiner 384 well plates (15000 cells per well for TLR7, 20,000 for TLR8 and 25,000 for TLR9) and then treated with test compounds in DMSO to yield a final dose response concentration range of 0.05 nM-50 μM. […] After a 22 hour incubation at 37° C., 5% CO2, SEAP levels are determined with the addition of HEK-Blue™ Detection reagent (Invivogen), a cell culture medium that allows for detection of SEAP, according to manufacturer's specifications. The percent inhibition is determined as the % reduction in the HEK-Blue signal present in wells treated with agonist plus DMSO alone compared to wells treated with a known inhibitor.

The IC50 is the concentration that gives 50% inhibition. In the case of `Cc1cc(-c2[nH]c3cc(F)c(C4CCN(CC(=O)N(C)C)CC4)cc3c2C(C)C)cc(C)n1` [Example 837, 2-(4-(2-(2,6-dimethylpyridin-4-yl)-6-fluoro-3-isopropyl-1H-indol-5-yl)piperidin-1-yl)-N,N-dimethylacetamide], the IC50 on human TLR7 amounted to 1.9 nM; on human TLR8, 11.4 nM; at human TLR9 it was 194 nM.

With `Cc1c(-c2ccncc2)[nH]c2ccc(C3CCN(C4CCN(C(C)C)CC4)CC3)cc12` [Example 843, 5-(1′-isopropyl-[1,4′-bipiperidin]-4-yl)-3-methyl-2-(pyridin-4-yl)-1H-indole], the IC50 at human TLR7 was determined as 292 nM; at human TLR8, 28.4 nM; on human TLR9, 38 nM.

As to `CCc1c(-c2ccnc(C)c2)[nH]c2ccc(C3CCN(C(=O)NC4CCNCC4)CC3)cc12` [Example 845, 4-(3-ethyl-2-(2-methylpyridin-4-yl)-1H-indol-5-yl)-N-(piperidin-4-yl)piperidine-1-carboxamide], the values for the IC50 on human TLR7, at human TLR8 and at human TLR9 were 148 nM, 92.9 nM and 1170 nM, respectively.

In the case of `CCc1c(-c2ccnc(C)c2)[nH]c2ccc(C3CCN(C(=O)NC4CCN(C(=O)C(F)(F)F)CC4)CC3)cc12` [Example 846, 4-(3-ethyl-2-(2-methylpyridin-4-yl)-1H-indol-5-yl)-N-(1-(2,2,2-trifluoroacetyl)piperidin-4-yl)piperidine-1-carboxamide], the IC50 was 1590 nM at human TLR7, 1540 nM at human TLR8 and > 50000 nM on human TLR9.

Regarding `Cc1cc(-c2[nH]c3ccc(C4CCN(CC(C)(C)O)CC4)cc3c2C(C)C)cc(C)n1` [Example 848, 1-(4-(2-(2,6-dimethylpyridin-4-yl)-3-isopropyl-1H-indol-5-yl)piperidin-1-yl)-2-methylpropan-2-ol], the IC50 on human TLR7 amounted to 2.3 nM; on human TLR8, 1.7 nM; at human TLR9, 398 nM.

With `Cc1cc(-c2[nH]c3ccc(C4CCN(CC(O)C(C)C)CC4)cc3c2C(C)C)cc(C)n1` (stereo not drawn) [Example 849, 1-(4-(2-(2,6-dimethylpyridin-4-yl)-3-isopropyl-1H-indol-5-yl)piperidin-1-yl)-3-methylbutan-2-ol], the IC50 was found to be 1.4 nM on human TLR7, 2.3 nM at human TLR8 and 291 nM at human TLR9.

`Cc1cc(-c2[nH]c3ccc(C4CCN(CC(O)C(C)(C)C)CC4)cc3c2C(C)C)cc(C)n1` (stereo not drawn) [Example 850, 1-(4-(2-(2,6-dimethylpyridin-4-yl)-3-isopropyl-1H-indol-5-yl)piperidin-1-yl)-3,3-dimethylbutan-2-ol]: the IC50 is 3.8 nM against human TLR7, 4.7 nM on human TLR8 and 312 nM on human TLR9.

Regarding `Cc1cc(-c2[nH]c3ccc(C4CCN(CC(C)(C)O)CC4)cc3c2C(C)C)c(C)cn1` [Example 851, 1-(4-(2-(2,5-dimethylpyridin-4-yl)-3-isopropyl-1H-indol-5-yl)piperidin-1-yl)-2-methylpropan-2-ol], the IC50 stood at 10.4 nM against human TLR7, 0.7 nM at human TLR8 and 1690 nM on human TLR9.

As for `COC[C@H](O)CN1CCC(c2ccc3[nH]c(-c4cc(C)nc(C)c4)c(C(C)C)c3c2)CC1` [Example 852, (R)-1-(4-(2-(2,6-dimethylpyridin-4-yl)-3-isopropyl-1H-indol-5-yl)piperidin-1-yl)-3-methoxypropan-2-ol], the IC50 was found to be 4.1 nM against human TLR7, 3.8 nM on human TLR8 and 631 nM on human TLR9.

Regarding `C=CC(C)(O)CN1CCC(c2ccc3[nH]c(-c4cc(C)nc(C)c4)c(C(C)C)c3c2)CC1` (stereo not drawn) [Example 853, 1-(4-(2-(2,6-dimethylpyridin-4-yl)-3-isopropyl-1H-indol-5-yl)piperidin-1-yl)-2-methylbut-3-en-2-ol], the IC50 on human TLR7 came to 2.3 nM; at human TLR8 it was 1 nM; at human TLR9, 293 nM.

For `Cc1cc(-c2[nH]c3ccc(C4CCN(CC(O)CO)CC4)cc3c2C(C)C)cc(C)n1` (stereo not drawn) [Example 854, 3-(4-(2-(2,6-dimethylpyridin-4-yl)-3-isopropyl-1H-indol-5-yl)piperidin-1-yl) propane-1,2-diol], the IC50 came to 1 nM against human TLR7, 1.8 nM on human TLR8 and 159 nM on human TLR9.

Consider `Cc1cc(-c2[nH]c3ccc(C4CCN(CC(O)C(C)C)CC4)cc3c2C(C)C)cc(C)n1` (stereo not drawn) [Example 855, 1-(4-(2-(2,6-dimethylpyridin-4-yl)-3-isopropyl-1H-indol-5-yl)piperidin-1-yl)-3-methylbutan-2-ol], for which the IC50 against human TLR7 was 21.1 nM; on human TLR8, 1.5 nM; on human TLR9 it was 3300 nM.

Regarding `Cc1cc(-c2[nH]c3ccc(C4CCN(C(=O)C(=O)N5CCN(C)CC5)CC4)cc3c2C(C)C)cc(C)n1` [Example 856, 1-(4-(2-(2,6-dimethylpyridin-4-yl)-3-isopropyl-1H-indol-5-yl)piperidin-1-yl)-2-(4-methylpiperazin-1-yl)ethane-1,2-dione], the 50% inhibitory concentration (IC50) on human TLR7 came out at 2.9 nM; at human TLR8 it was 30.6 nM; on human TLR9, 832 nM.

Consider `Cc1cc(-c2[nH]c3ccc(C4CCN(C(=O)C(=O)N5CCNCC5)CC4)cc3c2C(C)C)cc(C)n1` [Example 857, 1-(4-(2-(2,6-dimethylpyridin-4-yl)-3-isopropyl-1H-indol-5-yl)piperidin-1-yl)-2-(piperazin-1-yl)ethane-1,2-dione], for which the IC50 worked out at 1.3 nM against human TLR7, 13.6 nM on human TLR8 and 441 nM at human TLR9.

Take `Cc1cc(-c2[nH]c3ccc(C4CCN(C(=O)C(=O)N(C)CCN(C)C)CC4)cc3c2C(C)C)cc(C)n1` [Example 858, N-(2-(dimethylamino)ethyl)-2-(4-(2-(2,6-dimethylpyridin-4-yl)-3-isopropyl-1H-indol-5-yl)piperidin-1-yl)-N-methyl-2-oxoacetamide]: the IC50 on human TLR7 worked out at 1.9 nM; at human TLR8 it was 5.7 nM; at human TLR9, 519 nM.

Take `Cc1cc(-c2[nH]c3ccc(C4CCN(C(=O)C(=O)O)CC4)cc3c2C(C)C)cc(C)n1` [Example 859, 2-(4-(2-(2,6-dimethylpyridin-4-yl)-3-isopropyl-1H-indol-5-yl)piperidin-1-yl)-2-oxoacetic acid]: the IC50 against human TLR7 was 44.1 nM; on human TLR8, 539 nM; at human TLR9, > 50000 nM.

Turning to `Cc1cc(-c2[nH]c3ccc(C4CCN(C(=O)C(=O)NCCc5ccncc5)CC4)cc3c2C(C)C)cc(C)n1` [Example 860, 2-(4-(2-(2,6-dimethylpyridin-4-yl)-3-isopropyl-1H-indol-5-yl)piperidin-1-yl)-2-oxo-N-(2-(pyridin-4-yl)ethyl)acetamide], the figures for the IC50 at human TLR7, at human TLR8 and at human TLR9 were 9.7 nM, 89.2 nM and 15700 nM, respectively.

With `Cc1cc(-c2[nH]c3ccc(C4CCN(C(=O)C(=O)NCC5CCNCC5)CC4)cc3c2C(C)C)cc(C)n1` [Example 861, 2-(4-(2-(2,6-dimethylpyridin-4-yl)-3-isopropyl-1H-indol-5-yl)piperidin-1-yl)-2-oxo-N-(piperidin-4-ylmethyl)acetamide], the figures for the IC50 against human TLR7, on human TLR8 and on human TLR9 were 13.5 nM, 59 nM and 3420 nM, respectively.

With `Cc1cc(-c2[nH]c3ccc(C4CCN(C=O)CC4)cc3c2C(C)C)cc(C)n1` [Example 862, 4-(2-(2,6-dimethylpyridin-4-yl)-3-isopropyl-1H-indol-5-yl)piperidine-1-carbaldehyde], the IC50 was 5.1 nM against human TLR7, 120 nM on human TLR8 and > 50000 nM on human TLR9.

`CCc1c(-c2ccnc(C)c2)[nH]c2ccc(C3CCN(CCC(F)(F)F)CC3)cc12` [Example 863, 3-ethyl-2-(2-methylpyridin-4-yl)-5-(1-(3,3,3-trifluoropropyl)piperidin-4-yl)-1H-indole]: the IC50 against human TLR7 came to 469 nM; on human TLR8, 53 nM; on human TLR9, 2450 nM.

Turning to `Cc1cc(-c2[nH]c3ccc(C4CCN(C(C)CF)CC4)cc3c2C(C)C)ccn1` (stereo not drawn) [Example 864, 5-(1-(1-fluoropropan-2-yl)piperidin-4-yl)-3-isopropyl-2-(2-methylpyridin-4-yl)-1H-indole], the IC50 was 16.7 nM at human TLR7, 10.7 nM at human TLR8 and 917 nM at human TLR9.

As for `Cc1cc(-c2[nH]c3ccc(C4CCN(C(CF)CF)CC4)cc3c2C(C)C)ccn1` [Example 865, 5-(1-(1,3-difluoropropan-2-yl)piperidin-4-yl)-3-isopropyl-2-(2-methylpyridin-4-yl)-1H-indole], the IC50 on human TLR7 worked out at 36.7 nM; on human TLR8, 28.3 nM; on human TLR9 it was 1030 nM.

Take `Cc1cc(-c2[nH]c3ccc(C4CCN(CC5CC5)CC4)cc3c2C(C)C)ccn1` [Example 866, 5-(1-(cyclopropylmethyl)piperidin-4-yl)-3-isopropyl-2-(2-methylpyridin-4-yl)-1H-indole]: the figures for the IC50 against human TLR7, on human TLR8 and on human TLR9 were 38.1 nM, 12.2 nM and 1690 nM, respectively.

Regarding `Cc1cc(-c2[nH]c3ccc(C4CCN(CC5(C)COC5)CC4)cc3c2C(C)C)ccn1` [Example 867, 3-isopropyl-5-(1-((3-methyloxetan-3-yl)methyl)piperidin-4-yl)-2-(2-methylpyridin-4-yl)-1H-indole], the IC50 on human TLR7 stood at 16.3 nM; on human TLR8, 3.7 nM; on human TLR9, 794 nM.

For the compound `Cc1cc(-c2[nH]c3ccc(C4CCN(CC5CCCCC5)CC4)cc3c2C(C)C)ccn1` [Example 868, 5-(1-(cyclohexylmethyl)piperidin-4-yl)-3-isopropyl-2-(2-methylpyridin-4-yl)-1H-indole], the IC50 against human TLR7 worked out at 53.5 nM; at human TLR8, 33.8 nM; on human TLR9 it was 925 nM.

On to `Cc1cc(-c2[nH]c3ccc(C4CCN(C(C)C)CC4)cc3c2C(C)C)ccn1` [Example 869, 3-isopropyl-5-(1-isopropylpiperidin-4-yl)-2-(2-methylpyridin-4-yl)-1H-indole], for which the IC50 at human TLR7 stood at 13.2 nM; at human TLR8, 12.3 nM; at human TLR9, 803 nM.
